How the values were obtained:
[1] = DRUGMATRIX: Purinergic P2X radioligand binding (ligand: [3H] alpha, beta-Methylene-ATP); assay type: cell membranes, Oryctolagus cuniculus, New Zealand albino, Urinary bladder, Membrane; conditions: Not Active = under 50% inhibition at 10 µM
[2] = target: T1, Alpha-1A adrenergic receptor (Rattus norvegicus, UniProt P43140); test: DRUGMATRIX: Alpha-1A adrenergic receptor radioligand binding (ligand: prazosin); assay type: cell membranes, Wistar, Submaxillary gland, Membrane; conditions: Not Active = under 50% inhibition at 10 µM
T1 sequence (P43140 whole entry): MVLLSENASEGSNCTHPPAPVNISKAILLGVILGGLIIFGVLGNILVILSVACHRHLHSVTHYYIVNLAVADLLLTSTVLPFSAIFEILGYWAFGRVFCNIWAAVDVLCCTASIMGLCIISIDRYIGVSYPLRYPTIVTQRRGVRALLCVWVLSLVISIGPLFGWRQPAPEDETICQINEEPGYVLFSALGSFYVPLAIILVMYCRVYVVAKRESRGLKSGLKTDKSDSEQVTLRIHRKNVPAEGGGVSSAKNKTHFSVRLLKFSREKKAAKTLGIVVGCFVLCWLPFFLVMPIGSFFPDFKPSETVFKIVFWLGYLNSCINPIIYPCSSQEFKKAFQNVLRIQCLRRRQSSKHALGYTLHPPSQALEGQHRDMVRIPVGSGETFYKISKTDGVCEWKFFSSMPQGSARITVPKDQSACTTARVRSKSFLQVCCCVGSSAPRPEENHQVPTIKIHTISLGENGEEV

[3] = target: T2, Polyunsaturated fatty acid lipoxygenase ALOX15 (Oryctolagus cuniculus, UniProt P12530); test: biochemical; assay type: tissue-based, Reticulocytes;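 also: inhibition of 15-lipoxygenase enzyme activity measured with linoleic acid as the substrate; in other assays of this panel Not Active means under 50% inhibition at 10 µM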
T2 sequence (P12530 whole entry): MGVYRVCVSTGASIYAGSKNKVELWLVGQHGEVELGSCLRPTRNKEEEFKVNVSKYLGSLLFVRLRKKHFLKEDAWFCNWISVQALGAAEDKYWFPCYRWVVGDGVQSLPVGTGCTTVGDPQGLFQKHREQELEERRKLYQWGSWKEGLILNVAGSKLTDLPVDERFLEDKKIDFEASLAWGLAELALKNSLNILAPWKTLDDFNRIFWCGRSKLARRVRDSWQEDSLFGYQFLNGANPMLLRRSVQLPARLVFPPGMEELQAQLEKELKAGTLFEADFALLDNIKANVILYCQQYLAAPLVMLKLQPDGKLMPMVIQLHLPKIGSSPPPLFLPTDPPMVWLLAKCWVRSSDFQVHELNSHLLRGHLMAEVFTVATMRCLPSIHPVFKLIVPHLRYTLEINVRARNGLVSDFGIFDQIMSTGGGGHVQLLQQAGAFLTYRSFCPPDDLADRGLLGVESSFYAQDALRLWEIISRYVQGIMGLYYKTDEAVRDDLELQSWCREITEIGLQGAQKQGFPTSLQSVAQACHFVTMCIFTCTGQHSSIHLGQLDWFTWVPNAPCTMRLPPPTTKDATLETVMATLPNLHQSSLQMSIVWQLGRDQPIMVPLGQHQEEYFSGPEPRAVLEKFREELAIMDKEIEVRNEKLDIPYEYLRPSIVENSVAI

[4] = target: Platelet-activating factor receptor (Homo sapiens, UniProt P25105); assay type: tissue-based; also: in other assays of this panel Not Active means under 50% inhibition at 10 µM
[5] = target: T3, Cholecystokinin receptor type A (Homo sapiens, UniProt P32238); assay type: cell membranes, Membrane; conditions: 1321-n1; also: in other assays of this panel Not Active means under 50% inhibition at 10 µM
T3 sequence (P32238 whole entry): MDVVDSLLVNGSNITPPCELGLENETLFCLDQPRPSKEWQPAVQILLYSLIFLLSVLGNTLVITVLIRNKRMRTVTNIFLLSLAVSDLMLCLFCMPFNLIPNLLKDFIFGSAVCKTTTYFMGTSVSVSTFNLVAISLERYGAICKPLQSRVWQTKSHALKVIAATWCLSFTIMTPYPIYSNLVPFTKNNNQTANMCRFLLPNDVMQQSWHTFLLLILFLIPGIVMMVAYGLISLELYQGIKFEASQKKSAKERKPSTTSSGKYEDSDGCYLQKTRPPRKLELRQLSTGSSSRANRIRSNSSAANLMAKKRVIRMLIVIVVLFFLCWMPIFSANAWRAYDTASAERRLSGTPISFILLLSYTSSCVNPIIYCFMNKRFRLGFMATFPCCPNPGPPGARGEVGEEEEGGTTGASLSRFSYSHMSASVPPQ

[6] = DRUGMATRIX: GABAA, Chloride Channel, TBOB radioligand binding (ligand: [3H] TBOB); assay type: cell membranes, Rattus norvegicus, Wistar, Cerebral cortex, Membrane; conditions: Not Active = under 50% inhibition at 10 µM
[7] = target: T4, Substance-K receptor (Homo sapiens, UniProt P21452); assay type: cell membranes, CHO, Membrane; also: in other assays of this panel Not Active means under 50% inhibition at 10 µM
T4 sequence (P21452 whole entry): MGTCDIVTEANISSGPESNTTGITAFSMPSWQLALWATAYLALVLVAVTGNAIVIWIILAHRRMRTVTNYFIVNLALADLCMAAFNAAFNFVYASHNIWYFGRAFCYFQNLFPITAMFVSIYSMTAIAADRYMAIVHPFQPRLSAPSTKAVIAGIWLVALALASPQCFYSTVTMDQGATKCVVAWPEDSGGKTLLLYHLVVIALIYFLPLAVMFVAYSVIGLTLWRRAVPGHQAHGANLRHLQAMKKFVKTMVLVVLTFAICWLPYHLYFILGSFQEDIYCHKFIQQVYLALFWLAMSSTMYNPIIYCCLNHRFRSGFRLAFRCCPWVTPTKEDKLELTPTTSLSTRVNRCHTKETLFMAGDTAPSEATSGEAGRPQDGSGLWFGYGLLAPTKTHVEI

Platelet-activating factor receptor, sequence (P25105 whole entry): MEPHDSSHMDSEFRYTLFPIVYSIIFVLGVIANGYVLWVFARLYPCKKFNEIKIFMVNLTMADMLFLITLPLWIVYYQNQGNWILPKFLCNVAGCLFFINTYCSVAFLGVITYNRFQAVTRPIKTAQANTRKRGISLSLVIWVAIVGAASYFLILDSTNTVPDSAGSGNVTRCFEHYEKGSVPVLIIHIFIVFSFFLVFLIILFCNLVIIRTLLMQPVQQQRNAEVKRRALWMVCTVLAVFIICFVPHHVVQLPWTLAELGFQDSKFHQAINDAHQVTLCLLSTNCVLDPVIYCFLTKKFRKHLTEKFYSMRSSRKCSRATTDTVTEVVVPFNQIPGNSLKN

Compound | IC50 [1] | Ki [1] | IC50 [2] | IC50 ([3]; reticulocytes) | IC50 [4] | IC50 [5] | IC50 [6] | Ki [6] | IC50 ([7]; cho) | IC50 ([3]; read-out: IC50) [µM] | IC50 ([7]; read-out: IC50) [µM] | Ki ([7]; read-out: Ki) [µM]
O=[As][O-].[Na+] [SODIUM ARSENITE] | Not Active | Not Active | Not Active | Not Active | Not Active | Not Active | Not Active | Not Active | Not Active |  |  | 
Cc1ccc(Cl)c(Nc2ccccc2C(=O)O)c1Cl [MECLOFENAMIC ACID] | Not Active | Not Active | Not Active | Not Active | Not Active | Not Active | Not Active | Not Active | Not Active |  |  | 
Cc1ccc(S(=O)(=O)NC(=O)NN2CCCCCC2)cc1 [TOLAZAMIDE] | Not Active | Not Active | Not Active |  | Not Active | Not Active | Not Active | Not Active | Not Active | 5.11 |  | 
O=C(O)c1cc(/N=N/c2ccc(S(=O)(=O)Nc3ccccn3)cc2)ccc1O [SULFASALAZINE] | Not Active | Not Active | Not Active | Not Active | Not Active | Not Active | Not Active | Not Active | Not Active |  |  | 
CC(=O)O[C@]1(C(C)=O)CC[C@H]2[C@@H]3C[C@H](C)C4=CC(=O)CC[C@]4(C)[C@H]3CC[C@@]21C [MEDROXYPROGESTERONE ACETATE] | Not Active | Not Active | Not Active | Not Active | Not Active | Not Active | Not Active | Not Active | Not Active |  |  | 
CC[C@H](C)C(=O)O[C@H]1CCC=C2C=C[C@H](C)[C@H](CC[C@@H]3C[C@@H](O)CC(=O)O3)[C@H]21 [MEVASTATIN] | Not Active | Not Active | Not Active | Not Active | Not Active | Not Active | Not Active | Not Active | Not Active |  |  | 
CCN(CC)CCNC(=O)c1cc(Cl)c(N)cc1OC [METOCLOPRAMIDE] | Not Active | Not Active | Not Active | Not Active | Not Active | Not Active | Not Active | Not Active | Not Active |  |  | 
Cc1nnc(NS(=O)(=O)c2ccc(N)cc2)s1 [SULFAMETHIZOLE] | Not Active | Not Active | Not Active | Not Active | Not Active | Not Active | Not Active | Not Active | Not Active |  |  | 
CCC(C)(C)C(=O)O[C@H]1C[C@@H](C)C=C2C=C[C@H](C)[C@H](CC[C@@H]3C[C@@H](O)CC(=O)O3)[C@H]21 [SIMVASTATIN] | Not Active | Not Active | Not Active | Not Active | Not Active | Not Active | Not Active | Not Active | Not Active |  |  | 
CN1C(=O)OC(C)(C)C1=O [TRIMETHADIONE] | Not Active | Not Active | Not Active | Not Active | Not Active | Not Active | Not Active | Not Active | Not Active |  |  | 
CC[C@H](C)[C@@H](CO[C@@H](Cc1ccccc1)C(=O)N[C@@H](CCS(C)(=O)=O)C(=O)OC(C)C)NC[C@@H](N)CS | Not Active | Not Active | Not Active | Not Active | Not Active | Not Active | Not Active | Not Active |  |  | 1.61 | 0.536
OC[C@@H](O)[C@@H](O)[C@H](O)[C@H](O)CO [MANNITOL] | Not Active | Not Active | Not Active | Not Active | Not Active | Not Active | Not Active | Not Active | Not Active |  |  | 

— ChEMBL document CHEMBL1909046, “DrugMatrix in vitro pharmacology data”
